# Like-named read-outs stand apart in the source and are kept apart here.
# Legend:
# C. albicans SC5314 [1] = experiment: Antifungal susceptibility testing, microbroth dilution MIC; type: cell-based; conditions: Candida albicans, read-out: MIC (μg/mL) against fungi SC5314
# From the text: (§1) Compound library. The thiosemicarbazone derivatives Triapine and COTI-2 were purchased from Med Chem Express (MCE). The other 87 thiosemicarbazones used in this study were previously synthesized by our collaborators (1, 2). Their structures are shown in Table 1 and Table S1 to help the reader clearly understand the relationship between structure and activity.
# (§2) Strains and culture conditions. Clinically derived C. albicans isolates, including G5, F5, and Gu5, were kindly provided by Professor Joachim Morschhäuser of the University of Würzburg. Other clinical C. albicans isolates were kindly donated by Professor Qingguo Qi of Shandong University and Qianfoshan Hospital of Shandong Province Other Candida strains were obtained from Jinan Central Hospital.
# (§3) The zap1 mutant and its complemented strain were kindly provided by Professor Aaron P. Mitchell of Carnegie Mellon University (3). The C. neoformans strains used in this study was kindly donated by Professor Guojian Liao of Southwest University and A. fumigatus strain used in this study was provided by Professor Ling Lu of Nanjing Normal University. Before in vitro and in vivo experiments, all C. albicans strains were grown on YPD agar plates. After culturing at 30°C for 24 h, colonies of each strain were cultured in liquid YPD medium at 30°C with continuous shaking […]
# (§4) Antifungal susceptibility testing. To determine in vitro antifungal activities, the microbroth dilution method was carried out in RPMI1640 medium according to the guidelines of the Clinical and Laboratory Standards Institute (4, 5). The initial concentration in RPMI1640 medium was 1 × 10^3 CFU/mL for the C. albicans and C. neoformans suspensions but 1 × 10^4 CFU/mL for A. fumigatus. The range of final drug concentrations was 0.0156–64 μg/mL. The plates were incubated at35°C for 24 […]
# (§5) h (for C. albicans, C. krusei, C. tropicalis, C. parapsilosis) or 48 h (for C. neoformans, A. fumigatus). The MIC was determined based on visible growth inhibition compared with the control. All experiments were performed in duplicate. […]
# C. neoformans H99 = experiment: as above; type: cell-based; conditions: Cryptococcus neoformans, read-out: MIC (μg/mL) against fungi H99
# From the text: as §1, §2
# (§6) The zap1 mutant and its complemented strain were kindly provided by Professor Aaron P. Mitchell of Carnegie Mellon University (3). The C. neoformans strains used in this study was kindly donated by Professor Guojian Liao of Southwest University and A. fumigatus strain used in this study was provided by Professor Ling Lu of Nanjing Normal University. […]
# as §4, §5
# A. fumigatus AF293 = experiment: as above; type: cell-based; conditions: Aspergillus fumigatus, read-out: MIC (μg/mL) against fungi AF293
# From the text: as §1, §2, §6, §4, §5
# A. fumigatus 1161 = experiment: Microbroth dilution MIC80; type: cell-based; conditions: Aspergillus fumigatus, 1161
# From the text: as §1, §2, §3, §4, §5
# C. albicans 28D = experiment: Microbroth dilution MIC80; type: cell-based; conditions: Candida albicans, 28D
# From the text: as §1, §2, §3, §4, §5
# C. albicans F5 = experiment: Microbroth dilution MIC80; type: cell-based; conditions: Candida albicans, F5
# From the text: as §1, §2, §3, §4, §5
# C. albicans YEM13 = experiment: Microbroth dilution MIC80; type: cell-based; conditions: Candida albicans
# From the text: as §1, §2, §3, §4, §5
# C. albicans 28A = experiment: Microbroth dilution MIC80; type: cell-based; conditions: Candida albicans, 28A
# From the text: as §1, §2, §3, §4, §5
# C. albicans 24g = experiment: Microbroth dilution MIC80; type: cell-based; conditions: Candida albicans, 24G
# From the text: as §1, §2, §3, §4, §5
# C. albicans CA3 = experiment: Microbroth dilution MIC80; type: cell-based; conditions: Candida albicans, CA3
# From the text: as §1, §2, §3, §4, §5
# C. tropicalis CT2 = experiment: Microbroth dilution MIC80; type: cell-based; conditions: Candida tropicalis, CT2
# From the text: as §1, §2, §3, §4, §5
# C. albicans CA4 = experiment: Microbroth dilution MIC80; type: cell-based; conditions: Candida albicans, CA4
# From the text: as §1, §2, §3, §4, §5
# C. neoformans 108 = experiment: Microbroth dilution MIC80; type: cell-based; conditions: Cryptococcus neoformans, 108
# From the text: as §1, §2, §3, §4, §5
# C. albicans 28I = experiment: Microbroth dilution MIC80; type: cell-based; conditions: Candida albicans, 28I
# From the text: as §1, §2, §3, §4, §5
# C. albicans CA1 = experiment: Microbroth dilution MIC80; type: cell-based; conditions: Candida albicans, CA1
# From the text: as §1, §2, §3, §4, §5
# C. albicans DSY654 = experiment: Microbroth dilution MIC80; type: cell-based; conditions: Candida albicans
# From the text: as §1, §2, §3, §4, §5
# C. albicans 11e = experiment: Microbroth dilution MIC80; type: cell-based; conditions: Candida albicans, 11E
# From the text: as §1, §2, §3, §4, §5
# C. albicans 11f = experiment: Microbroth dilution MIC80; type: cell-based; conditions: Candida albicans, 11F
# From the text: as §1, §2, §3, §4, §5
# C. albicans YEM15 = experiment: Microbroth dilution MIC80; type: cell-based; conditions: Candida albicans, YEM15
# From the text: as §1, §2, §3, §4, §5
# C. albicans SC5314 [2] = experiment: Minimal fungicidal concentration (MFC); type: cell-based; conditions: Candida albicans, read-out: MFC against C. albicans SC5314
# C. albicans Gu5 = experiment: microbe, parasite or virus in culture; type: cell-based; conditions: Candida albicans, GU5
# From the text: as §1, §2, §3, §4, §5
# C. albicans G5 = experiment: microbe, parasite or virus in culture; type: cell-based; conditions: Candida albicans, G5
# From the text: as §1, §2, §3, §4, §5
# [3] = test system: human hepatocellular carcinoma cell line HepG2; experiment: Cytotoxicity testing (MTT); type: cell-based; conditions: ratio of IC50 against HepG2 to MIC80 against C. albicans SC5314
# [4] = Cytotoxicity testing (MTT); type: cell-based, human; conditions: human, HepG2 cells (hepatocellular carcinoma cell line)
# [5] = Cytotoxicity testing (MTT); type: cell-based, human; conditions: human, 48 h, MTT
# Experimental: (§7) h (for C. albicans, C. krusei, C. tropicalis, C. parapsilosis) or 48 h (for C. neoformans, A. fumigatus). The MIC was determined based on visible growth inhibition compared with the control. All experiments were performed in duplicate.
# (§8) Cytotoxicity testing. The cell lines HK2 and 16HBE were used to evaluate the cytotoxicity of 19ak, 19k and 19t. Cells in DMEM containing 10% fetal bovine serum (Gibco) were seeded in 96-well tissue culture plates at a cell density of 1 × 10^4 cells/mL and incubated for 24 h to allow adhesion. The supernatant was then replaced with fresh DMEM containing various concentrations of 19ak, 19k and 19t. The plates were subsequently incubated for an additional 48 h at 37°C with 5% CO2, followed by the addition of 10 μL of MTT solution to each well and incubation at 37°C for 4 h.
# (§9) The effects of the compounds on cell proliferation were detected by measuring the absorbance at 570 nm in a microplate reader (BioTek, VT, USA). Three independent experiments were conducted. […]
# [6] = test system: human bronchial epithelial cell line 16HBE; experiment: Cytotoxicity testing (MTT); type: cell-based; conditions: ratio of IC50 against 16HBE to MIC80 against C. albicans SC5314
# Experimental: as §7, §8, §9
# [7] = test system: human renal epithelial cell line HK2; experiment: Cytotoxicity testing (MTT); type: cell-based; conditions: ratio of IC50 against HK2 to MIC80 against C. albicans SC5314
# Experimental: as §7, §8, §9
# C. krusei CK1 = experiment: Microbroth dilution MIC80; type: cell-based, Candida krusei; conditions: Pichia kudriavzevii, CK1
# From the text: as §1, §2, §3, §4, §5
# C. parapsilosis CP001 = experiment: Microbroth dilution MIC80; type: cell-based, Candida parapsilosis; conditions: Lodderomyces parapsilosis, CP001
# From the text: as §1, §2, §3, §4, §5
compound,measurement,setting,value
COc1ccc(NC(=S)N/N=C(\C)c2ccccn2)cc1 [Compound 19s],MIC,"C. albicans SC5314 [1]; SC5314, 24 h",2 µg/mL
same,MIC,"C. neoformans H99; H99, 48 h",0.25 µg/mL
same,MIC,"A. fumigatus AF293; AF293, 48 h",8 µg/mL
C/C(=N\NC(=S)Nc1ccc(Br)cc1)c1ccccn1 [Compound 19t],MIC80,A. fumigatus 1161,0.125 µg/mL
same,MIC80,C. albicans 28D,0.25 µg/mL
same,MIC80,C. albicans F5,0.25 µg/mL
same,MIC80,C. albicans YEM13,1 µg/mL
same,MIC80,C. albicans 28A,0.25 µg/mL
same,MIC80,C. albicans 24g,0.25 µg/mL
same,MIC80,C. albicans CA3,0.25 µg/mL
same,MIC80,C. tropicalis CT2,0.5 µg/mL
same,MIC80,C. albicans CA4,0.25 µg/mL
same,MIC80,C. neoformans 108,0.031 µg/mL
same,MIC80,C. albicans 28I,0.5 µg/mL
same,MIC80,C. albicans CA1,0.25 µg/mL
same,MIC80,C. albicans DSY654,0.25 µg/mL
same,MIC80,C. albicans 11e,0.5 µg/mL
same,MIC80,C. albicans 11f,0.25 µg/mL
same,MIC80,C. albicans YEM15,1 µg/mL
same,MFC,C. albicans SC5314 [2],64 µg/mL
same,MIC80,C. albicans Gu5,1 µg/mL
same,MIC80,C. albicans G5,1 µg/mL
same,MIC,"C. albicans SC5314 [1]; SC5314, C. albicans wild-type strain, RPMI1640, 35°C, 24 h",0.5 µg/mL
same,Selectivity index HepG2,[3],2.778
same,IC50,[4],1.39 µg/mL
same,IC50 at 48 h,"[5]; 16HBE cells (bronchial epithelial cell line), 16HBE cells",1.43 µg/mL
same,IC50 at 48 h,"[5]; HK2 cells (renal epithelial cell line), HK2 cells",3.46 µg/mL
same,Selectivity index 16HBE,[6],2.858
same,Selectivity index HK2,[7],6.918
same,MIC,"C. neoformans H99; H99, C. neoformans wild-type strain, 48 h",0.031 µg/mL
same,MIC,"A. fumigatus AF293; AF293, standard strain of A. fumigatus, 48 h",0.125 µg/mL
same,MIC80,C. krusei CK1,0.5 µg/mL
same,MIC80,C. parapsilosis CP001,0.5 µg/mL
CCC/C(=N\NC(=S)Nc1ccccc1Br)c1ccccn1 [Compound 19v],MIC,"C. albicans SC5314 [1]; SC5314, 24 h",1 µg/mL
same,MIC,"C. neoformans H99; H99, 48 h",0.25 µg/mL
same,MIC,"A. fumigatus AF293; AF293, 48 h",4 µg/mL

# From publication PMC9241695, “Selective Metal Chelation by a Thiosemicarbazone Derivative Interferes with Mitochondrial Respiration and Ribosome Biogenesis in Candida albicans” (Microbiology Spectrum, 2022)
